# Experimental data published in the Deep4Chem optical property database.
# Where “and” joins values, the source holds several entries; their conditions need not be identical. Equal values may be shown once.
# Experiment: solvent given as SMILES
compound,measurement,setting,value
CCCCCCCCC1(CCCCCCCC)c2cc(-c3ccccc3)ccc2-c2ccc(-c3ccccc3)cc21,absorption maximum,in ClC(Cl)Cl,327 nm
c1ccc([B-]2(c3ccccc3)Oc3ccc4ccccc4c3-c3c4ccccc4nc[n+]32)cc1,absorption maximum,in Cc1ccccc1,451 nm
Clc1ccccc1-c1nc2sc3ccccc3c2s1,absorption maximum,in CS(C)=O,347 nm
F[B-]1(F)n2c(c3cccc4cccc2c43)=Nc2cccc[n+]21,absorption maximum,in C1CCOC1,468 nm
same,absorption maximum,in CC#N,460 nm
same,absorption maximum,in CCCCCC,473 nm
same,absorption maximum,in Cc1ccccc1,472 nm
same,absorption maximum,in ClCCl,438 nm
CCCCCCn1c(=O)c2c3[nH]c4ccccc4sc3c3c(=O)n(CCCCCC)c(=O)c3c2c1=O,absorption maximum,in ClCCl,500 nm
F[B-]1(F)n2c(Cl)c(Cl)c(Br)c2C(Cl)=C2C(Br)=C(Cl)C(Cl)=[N+]21,absorption maximum,in ClCCl,546 nm
CN(C)c1ccc(C(=O)Nc2ccc(F)cc2)cc1,absorption maximum,in C1CCCCC1,307 nm
same,absorption maximum,in C1CCOC1,311 nm
same,absorption maximum,in CC#N,314 nm
same,absorption maximum,in CCOCC,307 nm
Cc1c2ccccc2c(C2=C3C=CC=[N+]3[B-](F)(F)n3cccc32)c2ccccc12,absorption maximum,in CC#N,502 nm
same,absorption maximum,in CCCCCC,504 nm
same,absorption maximum,in CCO,503 nm
same,absorption maximum,in CN(C)C=O,506 nm
same,absorption maximum,in Cc1ccccc1,508 nm
same,absorption maximum,in ClCCl,506 nm
CCCN1/C(=C\c2c(-c3ccc(N(C)C)cc3)c(=O)c2=O)C=Cc2ccccc21,absorption maximum,in C1CCCCC1,358 nm
same,absorption maximum,in Cc1ccccc1,362 nm
same,absorption maximum,in ClCCl,509 nm
CC(C)(C)c1cc(-c2c3cc(c(-c4cc(C(C)(C)C)cc(C(C)(C)C)c4)c4ccc([nH]4)c(-c4ccc([N+](=O)[O-])cc4)c4nc(c(-c5ccc([N+](=O)[O-])cc5)c5ccc2[nH]5)C=C4)N=C3)cc(C(C)(C)C)c1,absorption maximum,in ClCCl,726 nm
CC1=C(c2cccs2)C(C)=[N+]2C1=C(c1ccc(OS(=O)(=O)c3ccc([N+](=O)[O-])cc3[N+](=O)[O-])cc1)c1c(C)c(-c3cccs3)c(C)n1[B-]2(F)F,absorption maximum,in CO,526 nm
same,absorption maximum,in Cc1ccccc1,535 nm
same,absorption maximum,in ClCCl,533 nm
N#Cc1ccc(-c2cc3c(ccc4sccc43)s2)cc1,absorption maximum,in ClCCl,346 nm
CCCCCCOc1cc2[nH]c(cc2CCOC)c2nc(ccc3[nH]c(cc3CCOC)c3nc1C(CCOC)=C3)C(CCOC)=C2,absorption maximum,in Cc1ccccc1,684 nm
COc1cccc(OC)c1C1=C2C(C)=CC(C)=[N+]2[B-](F)(F)n2c(C)cc(C)c21,absorption maximum,in C1CCOC1,506 nm
same,absorption maximum,in CC#N,500 nm
same,absorption maximum,in CC(=O)C(C)(C)C,505 nm
same,absorption maximum,in CC(C)=O,503 nm
same,absorption maximum,in CCCCCC,507 nm
same,absorption maximum,in CCOC(C)=O,504 nm
same,absorption maximum,in CO,503 nm
O=S(=O)([O-])c1cc(S(=O)(=O)Cl)ccc1C1=c2cc3c4c(c2Oc2c1cc1c5c2CCCN5CCC1)CCC[N+]=4CCC3,absorption maximum,in O,589 nm
COc1ccc(C#Cc2cc3ccccc3oc2=O)cc1,absorption maximum,in CC#N,353 nm
COc1ccc(-c2cccc3ncc(-c4ccccc4)n23)cc1,absorption maximum,in ClCCl,332 nm
c1ccc(-c2nc(-c3ccccc3)nc(-c3ccc(-n4c5ccccc5c5c6c(ccc54)-c4ccccc4C6(c4ccccc4)c4ccccc4)cc3)n2)cc1,absorption maximum,in Cc1ccccc1,372 nm
FC(F)(F)c1ccc(C#Cc2ncc(-c3ccccc3)o2)cc1,absorption maximum,in ClCCl,320 nm
COC(=O)[C@H](Cc1ccccc1)Nc1c(C(C)=O)c(=O)oc2cc(N(C)C)ccc12,absorption maximum,in ClCCl,373 nm
CCc1cc(CC)cc(-n2c3ccccc3c3cc4c(cc32)c2ccccc2n4-c2cc(CC)cc(CC)c2)c1,absorption maximum,in ClC(Cl)Cl,410 nm
Cc1cc(C)c(B(c2ccc(N(c3ccccc3)c3ccccc3)cc2)c2c(C)cc(C)cc2C)c(C)c1,absorption maximum,in Cc1ccccc1,380 nm
Cc1cc(C2(c3cc(C)c(O)c(Br)c3)OS(=O)(=O)c3ccccc32)cc(Br)c1O,absorption maximum,in C1CCOC1,396 nm
same,absorption maximum,in C1COCCO1,396 nm
same,absorption maximum,in CC#N,398 nm
same,absorption maximum,in CC(C)(C)O,411 nm
same,absorption maximum,in CC(C)=O,394 nm
same,absorption maximum,in CC(C)O,413 nm
same,absorption maximum,in CCCCCO,417 nm
same,absorption maximum,in CCCO,415 nm
same,absorption maximum,in CCO,414 nm
same,absorption maximum,in CCOC(C)=O,395 nm
same,absorption maximum,in CCOCC,395 nm
O=[N+]([O-])c1ccc(C#Cc2ccc([N+](=O)[O-])cc2)cc1,absorption maximum,in CO,329 nm
same,absorption maximum,in ClCCl,335 nm
F[B-]1(F)N2C=CN=CC2=[N+]2[N+]1=Cc1c(-c3ccccc3)cc(-c3ccccc3)n1[B-]2(F)F,absorption maximum,in ClCCl,528 nm
Cc1nc2c(ccc3c2sc(/C=C/c2ccc(-n4c5ccccc5c5ccccc54)cc2)[n+]3C)s1,absorption maximum,in CO,446 nm
same,absorption maximum,in ClC(Cl)Cl,488 nm
Cc1c(C(=O)c2ccc(C(F)(F)F)cc2)c2ccc3cccc4c5cccc6ccc1c(c65)c2c34,absorption maximum,in ClCCl,370 nm
CC(C)(C)NC(=O)c1cc2ccc3cccc4ccc(c1C(=O)NC(C)(C)C)c2c34,absorption maximum,in ClC(Cl)Cl,385 nm
O=C(c1ccc(-n2c3ccc(-c4ccccc4)cc3c3cc(-c4ccccc4)ccc32)cc1)c1ccc(-n2c3ccc(-c4ccccc4)cc3c3cc(-c4ccccc4)ccc32)cc1,absorption maximum,in Cc1ccccc1,370 nm
CCCCN1C(=O)c2cccc3c(N(C)C)ccc(c23)C1=O,absorption maximum,in CC#N,416 nm
same,absorption maximum,in CS(C)=O,428 nm
same,absorption maximum,in Cc1ccccc1,403 nm
CCOc1cccc2c1O[B-](F)(F)[n+]1c3c(c4c(c1-2)-c1ccccc1CC4)-c1ccccc1CC3,absorption maximum,in ClCCl,343 nm
COC(=O)c1c2ccccc2nc2ccccc12,absorption maximum,in C1CCOC1,361 nm
same,absorption maximum,in C1COCCO1,361 nm
same,absorption maximum,in CC#N,360 nm
same,absorption maximum,in CCCCCO,361 nm
same,absorption maximum,in CCCCO,360 nm
same,absorption maximum,in CCCO,361 nm
same,absorption maximum,in CCO,360 nm
same,absorption maximum,in CO,360 nm
same,absorption maximum,in COCCOC,361 nm
same,absorption maximum,in ClC(Cl)Cl,361 nm
same,absorption maximum,in ClCCl,361 nm
same,absorption maximum,in OCCO,361 nm
O=C1c2ccccc2S(=O)(=O)c2ccc(-n3c4ccccc4c4ccccc43)cc21,absorption maximum,in C1CCOC1,404 nm
same,absorption maximum,in CCCCCC,404 nm
same,absorption maximum,in Cc1ccccc1,404 nm
same,absorption maximum,in ClC(Cl)Cl,404 nm
same,absorption maximum,in ClCCl,404 nm
COc1c2ccccc2c(OC)c2c1c1cccc(OC)c1n2C,absorption maximum,in C1CCCCC1,409 nm
same,absorption maximum,in CC#N,409 nm
same,absorption maximum,in CO,407 nm
same,absorption maximum,in ClCCl,412 nm
COC(=O)c1ccc(/C=C2\N=C(c3ccccc3)OC2=O)cc1,absorption maximum,in C1COCCO1,370 nm
CCCCCCC(CCCCCC)N1C(=O)c2cccc3c(-c4ccc(OC)c5ccccc45)ccc(c23)C1=O,absorption maximum,in CCCCCC,322.6 nm
same,absorption maximum,in CCCCCCCCCCCCCC,322.6 nm
same,absorption maximum,in CCCCCCCCCCCO,323.8 nm
same,absorption maximum,in CCCCO,323.6 nm
same,absorption maximum,in CN(C)C=O,323.8 nm
same,absorption maximum,in Cc1ccccc1,324 nm
same,absorption maximum,in ClC(Cl)Cl,325 nm
CCCCCCc1cc2c(=O)c3cc(CCCCCC)cc4c(=O)c5cc(CCCCCC)cc6c(=O)c(c1)c2n(c34)c65,absorption maximum,in ClCCl,424 nm
CC(C)(C)c1cc2c3c(c1)c1cc(C(C)(C)C)cc4c1n3B1c3c-2cccc3-c2cc(C(C)(C)C)cc3c5cc(C(C)(C)C)cc-4c5n1c23,absorption maximum,in C1CCOC1,439 nm
COc1ccc(/C2=C3N=C(C(c4ccccc4)=C/3c3ccccc3)/C(c3ccc(OC)cc3)=c3\[nH]/c(c(-c4ccccc4)c3-c3ccccc3)=C(/c3ccc(OC)cc3)C3=N/C(=C(/c4ccc(OC)cc4)c4[nH]c2c(-c2ccccc2)c4-c2ccccc2)C(c2ccccc2)=C3c2ccccc2)cc1,absorption maximum,in ClCCl,731 nm
Cc1cc(C)c(B(c2cc3c4c(c(B(c5c(C)cc(C)cc5C)c5c(C)cc(C)cc5C)cc5c4c2CCC5)CCC3)c2c(C)cc(C)cc2C)c(C)c1,absorption maximum,in CCCCCC,420 nm
N#Cc1c(-c2ccc(N(c3ccccc3)c3ccccc3)cc2)c(C#N)c(-c2ccc(N(c3ccccc3)c3ccccc3)cc2)c(C#N)c1-c1ccc(N(c2ccccc2)c2ccccc2)cc1,absorption maximum,in O=P(c1ccccc1)(c1ccccc1)c1ccccc1Oc1ccccc1P(=O)(c1ccccc1)c1ccccc1,420 nm
CC(C)(C)c1ccc2c(c1)c1cc(C(C)(C)C)ccc1n2-c1ccc(-c2nc(-c3ccc(P(=O)(c4ccccc4)c4ccccc4)cc3)nc(-c3ccc(P(=O)(c4ccccc4)c4ccccc4)cc3)n2)cc1,absorption maximum,in C1CCOC1,364.73 nm
same,absorption maximum,in CC#N,361.43 nm
same,absorption maximum,in CC(C)=O,366.18 nm
same,absorption maximum,in CN(C)C=O,365.92 nm
same,absorption maximum,in Cc1ccccc1,375.96 nm
same,absorption maximum,in ClC(Cl)Cl,435.78 nm
same,absorption maximum,in ClCCl,375.3 nm
Cc1cc(C)c(B(c2c(C)cc(C)cc2C)c2cc3ccc4ccccc4c3c3c2ccc2ccccc23)c(C)c1,absorption maximum,in C1CCCCC1,413 nm
same,absorption maximum,in C1CCOC1,413 nm
same,absorption maximum,in CC#N,410 nm
same,absorption maximum,in ClC(Cl)Cl,413 nm
same,absorption maximum,in c1ccccc1,415 nm
CC(C)(C)c1ccc2oc3nc4oc5cc(-n6c7ccccc7c7ccccc76)ccc5c4cc3c2c1,absorption maximum,in ClC(Cl)Cl,347 nm
CC(C)(C)c1ccc2c(c1)c1cc(C(C)(C)C)ccc1n2-c1ccc(N(c2ccc(-c3ccc(-c4ccc(N(c5ccc(-n6c7ccc(C(C)(C)C)cc7c7cc(C(C)(C)C)ccc76)cc5)c5ccc(-n6c7ccc(C(C)(C)C)cc7c7cc(C(C)(C)C)ccc76)cc5)cc4)c4nsnc34)cc2)c2ccc(-n3c4ccc(C(C)(C)C)cc4c4cc(C(C)(C)C)ccc43)cc2)cc1,absorption maximum,in ClCCl,462 nm
Cc1nc2c(ccc3c2sc(/C=C/C=C/c2ccc(N(C)C)cc2)[n+]3C)s1,absorption maximum,in CO,574 nm
same,absorption maximum,in ClC(Cl)Cl,617 nm
C[Si](C)(C)C#CC(C#C[Si](C)(C)C)=Cc1ccc(C=C(C#C[Si](C)(C)C)C#C[Si](C)(C)C)cc1,absorption maximum,in ClC(Cl)Cl,412 nm
O=C1c2ccccc2C2=Cc3cccc[n+]3[B-](F)(F)N12,absorption maximum,in CCO,391 nm
same,absorption maximum,in Cc1ccccc1,399 nm
same,absorption maximum,in ClCCl,396 nm and 385 nm
Cc1cc2c(o1)c(C)cc1ccc(=O)oc12,absorption maximum,in C1CCCCC1,330 nm
same,absorption maximum,in C1COCCO1,315 nm
same,absorption maximum,in CC#N,315 nm
same,absorption maximum,in CCO,305 nm
same,absorption maximum,in OCC(F)(F)F,310 nm
COc1cc(OC)cc(C(=O)OCc2c(C)c(=O)n3c(=O)c(C)c(C)n23)c1,absorption maximum,in CCO,378 nm
c1ccc(N(c2ccccc2)c2ccc(-c3ncc(-c4cccs4)s3)cc2)cc1,absorption maximum,in CO,387 nm
